Results from ChEMBL document CHEMBL4393657, “Tetrazole hybrids and their antifungal activities” (2019).
≈ marks a conversion by molar mass, not a printed value.

Tests used:
Type in all cases: functional
[1] = tested on: Cryptococcus neoformans; assay: Antifungal activity against Cryptococcus neoformans LA314 assessed as reduction in fungal cell growth incubated for 48 hrs by broth microdilution method; conditions: LA314, 48 h
[2] = tested on: Nakaseomyces glabratus; assay: Antifungal activity against Candida glabrata assessed as reduction in fungal cell growth incubated for 48 hrs by broth microdilution method
[3] = tested on: Candida parapsilosis; assay: Antifungal activity against Candida parapsilosis ATCC 22019 assessed as reduction in fungal cell growth incubated for 48 hrs by broth microdilution method; conditions: Lodderomyces parapsilosis, ATCC 22019, 48 h
[4] = tested on: Pichia kudriavzevii; assay: Antifungal activity against Candida krusei assessed as reduction in fungal cell growth incubated for 48 hrs by broth microdilution method
[5] = tested on: Candida albicans; assay: Antifungal activity against Candida albicans assessed as reduction in fungal cell growth incubated for 48 hrs by broth microdilution method
[6] = tested on: Candida tropicalis; assay: Antifungal activity against Candida tropicalis assessed as reduction in fungal cell growth incubated for 48 hrs by broth microdilution method
[7] = tested on: Aspergillus niger; assay: Antifungal activity against Aspergillus niger assessed as reduction in fungal cell growth incubated for 72 hrs by broth microdilution method

OC(Cn1cncn1)(Cn1nnnc1CCN1CCN(c2cccc(C(F)(F)F)c2)CC1)c1ccc(F)cc1F (stereo not given)
MIC [1]: 0.5 to 16 µg/mL (≈ 0.887 to 28.4 µM) | MIC [2]: 0.5 to 16 µg/mL (≈ 0.887 to 28.4 µM) | MIC [3]: 0.5 to 16 µg/mL (≈ 0.887 to 28.4 µM) | MIC [4]: 0.5 to 16 µg/mL (≈ 0.887 to 28.4 µM) | MIC [5]: 0.5 to 16 µg/mL (≈ 0.887 to 28.4 µM) | MIC [6]: 0.5 to 16 µg/mL (≈ 0.887 to 28.4 µM) | MIC [7]: 0.5 to 16 µg/mL (≈ 0.887 to 28.4 µM)

C[C@H](n1nnnc1CCN1CCN(c2ccccn2)CC1)[C@](O)(Cn1cncn1)c1ccc(F)cc1F
MIC [1]: 0.12 to 16 µg/mL (≈ 0.235 to 31.3 µM) | MIC [2]: 0.12 to 16 µg/mL (≈ 0.235 to 31.3 µM) | MIC [3]: 0.12 to 16 µg/mL (≈ 0.235 to 31.3 µM) | MIC [4]: 0.12 to 16 µg/mL (≈ 0.235 to 31.3 µM) | MIC [5]: 0.12 to 16 µg/mL (≈ 0.235 to 31.3 µM) | MIC [6]: 0.12 to 16 µg/mL (≈ 0.235 to 31.3 µM) | MIC [7]: 0.12 to 16 µg/mL (≈ 0.235 to 31.3 µM)

C[C@H](n1nnc(CCN2CCN(c3ccc([N+](=O)[O-])cc3)CC2)n1)[C@](O)(Cn1cncn1)c1ccc(F)cc1F
MIC [1]: 0.25 to 16 µg/mL (≈ 0.451 to 28.9 µM) | MIC [2]: 0.25 to 16 µg/mL (≈ 0.451 to 28.9 µM) | MIC [3]: 0.25 to 16 µg/mL (≈ 0.451 to 28.9 µM) | MIC [4]: 0.25 to 16 µg/mL (≈ 0.451 to 28.9 µM) | MIC [5]: 0.25 to 16 µg/mL (≈ 0.451 to 28.9 µM) | MIC [6]: 0.25 to 16 µg/mL (≈ 0.451 to 28.9 µM) | MIC [7]: 0.25 to 16 µg/mL (≈ 0.451 to 28.9 µM)

OC(Cn1cncn1)(Cn1nnnc1CCN1CCN(c2cccc(Cl)c2)CC1)c1ccc(F)cc1F (stereo not given)
MIC [1]: 0.5 to 16 µg/mL (≈ 0.943 to 30.2 µM) | MIC [2]: 0.5 to 16 µg/mL (≈ 0.943 to 30.2 µM) | MIC [3]: 0.5 to 16 µg/mL (≈ 0.943 to 30.2 µM) | MIC [4]: 0.5 to 16 µg/mL (≈ 0.943 to 30.2 µM) | MIC [5]: 0.5 to 16 µg/mL (≈ 0.943 to 30.2 µM) | MIC [6]: 0.5 to 16 µg/mL (≈ 0.943 to 30.2 µM) | MIC [7]: 0.5 to 16 µg/mL (≈ 0.943 to 30.2 µM)

CC(n1nnc(CCN2CCN(c3ccccn3)CC2)n1)C(O)(Cn1cncn1)c1ccc(F)cc1F (stereo not given)
MIC [1]: 1 to 16 µg/mL (≈ 1.96 to 31.3 µM) | MIC [2]: 1 to 16 µg/mL (≈ 1.96 to 31.3 µM) | MIC [3]: 1 to 16 µg/mL (≈ 1.96 to 31.3 µM) | MIC [4]: 1 to 16 µg/mL (≈ 1.96 to 31.3 µM) | MIC [5]: 1 to 16 µg/mL (≈ 1.96 to 31.3 µM) | MIC [6]: 1 to 16 µg/mL (≈ 1.96 to 31.3 µM) | MIC [7]: 1 to 16 µg/mL (≈ 1.96 to 31.3 µM)

CC(n1nnc(CCN2CCN(c3cccc(Cl)c3)CC2)n1)C(O)(Cn1cncn1)c1ccc(F)cc1F (stereo not given)
MIC [1]: 1 to 16 µg/mL (≈ 1.84 to 29.4 µM) | MIC [2]: 1 to 16 µg/mL (≈ 1.84 to 29.4 µM) | MIC [3]: 1 to 16 µg/mL (≈ 1.84 to 29.4 µM) | MIC [4]: 1 to 16 µg/mL (≈ 1.84 to 29.4 µM) | MIC [5]: 1 to 16 µg/mL (≈ 1.84 to 29.4 µM) | MIC [6]: 1 to 16 µg/mL (≈ 1.84 to 29.4 µM) | MIC [7]: 1 to 16 µg/mL (≈ 1.84 to 29.4 µM)

OC(Cn1cncn1)(Cn1nnc(CCN2CCN(c3ccc(Cl)cc3)CC2)n1)c1ccc(F)cc1F (stereo not given)
MIC [1]: 1 to 16 µg/mL (≈ 1.89 to 30.2 µM) | MIC [2]: 1 to 16 µg/mL (≈ 1.89 to 30.2 µM) | MIC [3]: 1 to 16 µg/mL (≈ 1.89 to 30.2 µM) | MIC [4]: 1 to 16 µg/mL (≈ 1.89 to 30.2 µM) | MIC [5]: 1 to 16 µg/mL (≈ 1.89 to 30.2 µM) | MIC [6]: 1 to 16 µg/mL (≈ 1.89 to 30.2 µM) | MIC [7]: 1 to 16 µg/mL (≈ 1.89 to 30.2 µM)

CCCCOc1ccccc1N1CCN(CCc2nnn(C(C)C(O)(Cn3cncn3)c3ccc(F)cc3F)n2)CC1 (stereo not given)
MIC [1]: 1 to 16 µg/mL (≈ 1.72 to 27.5 µM) | MIC [2]: 1 to 16 µg/mL (≈ 1.72 to 27.5 µM) | MIC [3]: 1 to 16 µg/mL (≈ 1.72 to 27.5 µM) | MIC [4]: 1 to 16 µg/mL (≈ 1.72 to 27.5 µM) | MIC [5]: 1 to 16 µg/mL (≈ 1.72 to 27.5 µM) | MIC [6]: 1 to 16 µg/mL (≈ 1.72 to 27.5 µM) | MIC [7]: 1 to 16 µg/mL (≈ 1.72 to 27.5 µM)

CC(n1nnnc1CCN1CCN(C(c2ccccc2)c2ccccc2)CC1)C(O)(Cn1cncn1)c1ccc(F)cc1F (stereo not given)
MIC [1]: 0.5 to 16 µg/mL (≈ 0.834 to 26.7 µM) | MIC [2]: 0.5 to 16 µg/mL (≈ 0.834 to 26.7 µM) | MIC [3]: 0.5 to 16 µg/mL (≈ 0.834 to 26.7 µM) | MIC [4]: 0.5 to 16 µg/mL (≈ 0.834 to 26.7 µM) | MIC [5]: 0.5 to 16 µg/mL (≈ 0.834 to 26.7 µM) | MIC [6]: 0.5 to 16 µg/mL (≈ 0.834 to 26.7 µM) | MIC [7]: 0.5 to 16 µg/mL (≈ 0.834 to 26.7 µM)

COc1ccccc1N1CCN(CCc2nnnn2C(C)C(O)(Cn2cncn2)c2ccc(F)cc2F)CC1 (stereo not given)
MIC [1]: 0.5 to 16 µg/mL (≈ 0.927 to 29.7 µM) | MIC [2]: 0.5 to 16 µg/mL (≈ 0.927 to 29.7 µM) | MIC [3]: 0.5 to 16 µg/mL (≈ 0.927 to 29.7 µM) | MIC [4]: 0.5 to 16 µg/mL (≈ 0.927 to 29.7 µM) | MIC [5]: 0.5 to 16 µg/mL (≈ 0.927 to 29.7 µM) | MIC [6]: 0.5 to 16 µg/mL (≈ 0.927 to 29.7 µM) | MIC [7]: 0.5 to 16 µg/mL (≈ 0.927 to 29.7 µM)

OC(Cn1cncn1)(Cn1nnc(CCN2CCN(c3cccc(Cl)c3)CC2)n1)c1ccc(F)cc1F (stereo not given)
MIC [1]: 1 to 16 µg/mL (≈ 1.89 to 30.2 µM) | MIC [2]: 1 to 16 µg/mL (≈ 1.89 to 30.2 µM) | MIC [3]: 1 to 16 µg/mL (≈ 1.89 to 30.2 µM) | MIC [4]: 1 to 16 µg/mL (≈ 1.89 to 30.2 µM) | MIC [5]: 1 to 16 µg/mL (≈ 1.89 to 30.2 µM) | MIC [6]: 1 to 16 µg/mL (≈ 1.89 to 30.2 µM) | MIC [7]: 1 to 16 µg/mL (≈ 1.89 to 30.2 µM)

CC(n1nnc(CCN2CCN(C(c3ccccc3)c3ccccc3)CC2)n1)C(O)(Cn1cncn1)c1ccc(F)cc1F (stereo not given)
MIC [1]: 1 to 16 µg/mL (≈ 1.67 to 26.7 µM) | MIC [2]: 1 to 16 µg/mL (≈ 1.67 to 26.7 µM) | MIC [3]: 1 to 16 µg/mL (≈ 1.67 to 26.7 µM) | MIC [4]: 1 to 16 µg/mL (≈ 1.67 to 26.7 µM) | MIC [5]: 1 to 16 µg/mL (≈ 1.67 to 26.7 µM) | MIC [6]: 1 to 16 µg/mL (≈ 1.67 to 26.7 µM) | MIC [7]: 1 to 16 µg/mL (≈ 1.67 to 26.7 µM)

COc1ccccc1N1CCN(CCc2nnnn2CC(O)(Cn2cncn2)c2ccc(F)cc2F)CC1 (stereo not given)
MIC [1]: 0.5 to 16 µg/mL (≈ 0.951 to 30.4 µM) | MIC [2]: 0.5 to 16 µg/mL (≈ 0.951 to 30.4 µM) | MIC [3]: 0.5 to 16 µg/mL (≈ 0.951 to 30.4 µM) | MIC [4]: 0.5 to 16 µg/mL (≈ 0.951 to 30.4 µM) | MIC [5]: 0.5 to 16 µg/mL (≈ 0.951 to 30.4 µM) | MIC [6]: 0.5 to 16 µg/mL (≈ 0.951 to 30.4 µM) | MIC [7]: 0.5 to 16 µg/mL (≈ 0.951 to 30.4 µM)

C[C@H](n1nnc(CCN2CCN(c3ccc(Cl)cc3)CC2)n1)[C@](O)(Cn1cncn1)c1ccc(F)cc1F
MIC [1]: 0.25 to 16 µg/mL (≈ 0.46 to 29.4 µM) | MIC [2]: 0.25 to 16 µg/mL (≈ 0.46 to 29.4 µM) | MIC [3]: 0.25 to 16 µg/mL (≈ 0.46 to 29.4 µM) | MIC [4]: 0.25 to 16 µg/mL (≈ 0.46 to 29.4 µM) | MIC [5]: 0.25 to 16 µg/mL (≈ 0.46 to 29.4 µM) | MIC [6]: 0.25 to 16 µg/mL (≈ 0.46 to 29.4 µM) | MIC [7]: 0.25 to 16 µg/mL (≈ 0.46 to 29.4 µM)

O=[N+]([O-])c1ccc(N2CCN(CCc3nnnn3CC(O)(Cn3cncn3)c3ccc(F)cc3F)CC2)cc1 (stereo not given)
MIC [1]: 0.5 to 16 µg/mL (≈ 0.925 to 29.6 µM) | MIC [2]: 0.5 to 16 µg/mL (≈ 0.925 to 29.6 µM) | MIC [3]: 0.5 to 16 µg/mL (≈ 0.925 to 29.6 µM) | MIC [4]: 0.5 to 16 µg/mL (≈ 0.925 to 29.6 µM) | MIC [5]: 0.5 to 16 µg/mL (≈ 0.925 to 29.6 µM) | MIC [6]: 0.5 to 16 µg/mL (≈ 0.925 to 29.6 µM) | MIC [7]: 0.5 to 16 µg/mL (≈ 0.925 to 29.6 µM)
